Assay results published in the NIST ThermoML archive (doi:10.1021/je100100n).

Test: xn = mol fraction of the nth substance listed
Details: 101 kPa, Liquid

CC(C)CO [2-methyl-1-propanol] + CCOC(=O)CC(=O)OCC
x2 = 0
Details | mass density [kg/m3]
288.15 K | 805.6
298.15 K | 797.916
313.15 K | 786.069
328.15 K | 773.692

CCCCO [butan-1-ol] + CCOC(=O)CC(=O)OCC
x2 = 0
Details | mass density [kg/m3]
288.15 K | 813.77
298.15 K | 806.137
313.15 K | 794.488
328.15 K | 782.477

CCOC(=O)CC(=O)OCC [diethyl 1,3-propanedioate] + CC(C)CO
mass density [kg/m3]
Details | 288.15 K | 298.15 K | 313.15 K | 328.15 K
x1 = 0.1 | 843.381 | 835.034 | 822.221 | 808.976
x1 = 0.2 | 877.394 | 868.517 | 854.953 | 841.015
x1 = 0.3 | 908.051 | 898.746 | 884.583 | 870.102
x1 = 0.35 | 922.305 | 912.816 | 898.402 | 885.344
x1 = 0.3999 | 935.772 | 926.126 | 911.47 | 896.55
x1 = 0.4495 | 948.602 | 938.806 | 923.966 | 908.867
x1 = 0.5001 | 961.044 | 951.116 | 936.085 | 920.835
x1 = 0.6001 | 984.156 | 973.999 | 958.66 | 943.14
x1 = 0.6999 | 1005.33 | 995.001 | 979.414 | 963.679
x1 = 0.8003 | 1025.06 | 1014.57 | 998.792 | 982.885
x1 = 0.9 | 1043.28 | 1032.67 | 1016.71 | 1000.67
x1 = 1 | 1060.33 | 1049.6 | 1033.5 | 1017.34

CCOC(=O)CC(=O)OCC [diethyl 1,3-propanedioate] + CC(C)O
mass density [kg/m3]
Details | 288.15 K | 298.15 K | 313.15 K | 328.15 K
x1 = 0.1001 | 836.917 | 827.809 | 813.707 | 798.938
x1 = 0.2 | 877.015 | 867.404 | 852.617 | 837.294
x1 = 0.3 | 911.283 | 901.308 | 886.063 | 870.365
x1 = 0.3501 | 926.715 | 916.6 | 901.155 | 885.344
x1 = 0.4 | 940.924 | 930.696 | 915.119 | 899.194
x1 = 0.455 | 955.561 | 945.23 | 929.523 | 913.507
x1 = 0.4999 | 966.784 | 956.373 | 940.573 | 924.508
x1 = 0.5501 | 978.638 | 968.162 | 952.282 | 936.171
x1 = 0.5999 | 989.637 | 979.111 | 963.18 | 947.033
x1 = 0.6499 | 1000.13 | 989.567 | 973.566 | 957.417
x1 = 0.7001 | 1010.03 | 999.417 | 983.39 | 967.228
x1 = 0.8 | 1028.36 | 1017.69 | 1001.63 | 985.453
x1 = 0.8995 | 1044.94 | 1034.26 | 1018.18 | 1002.01
x1 = 1 | 1060.33 | 1049.6 | 1033.5 | 1017.34

CCOC(=O)CC(=O)OCC [diethyl 1,3-propanedioate] + CCCCCO
mass density [kg/m3]
Details | 288.15 K | 298.15 K | 313.15 K | 328.15 K
x1 = 0.0999 | 849.562 | 841.661 | 829.624 | 817.296
x1 = 0.1998 | 878.757 | 870.343 | 857.553 | 844.519
x1 = 0.2999 | 906.036 | 897.187 | 883.774 | 870.127
x1 = 0.3498 | 919.092 | 910.054 | 896.347 | 882.426
x1 = 0.3997 | 931.801 | 922.576 | 908.607 | 894.428
x1 = 0.4499 | 944.204 | 934.797 | 920.565 | 906.141
x1 = 0.4999 | 956.145 | 946.568 | 932.101 | 917.475
x1 = 0.5501 | 967.903 | 958.185 | 943.506 | 928.648
x1 = 0.599 | 978.962 | 969.118 | 954.233 | 939.199
x1 = 0.65 | 990.137 | 980.151 | 965.074 | 949.864
x1 = 0.6997 | 1000.81 | 990.684 | 975.442 | 960.07
x1 = 0.7997 | 1021.52 | 1011.18 | 995.601 | 979.945
x1 = 0.9 | 1041.37 | 1030.84 | 1015 | 999.065
x1 = 1 | 1060.33 | 1049.6 | 1033.5 | 1017.34

CCOC(=O)CC(=O)OCC [diethyl 1,3-propanedioate] + CCCCO
mass density [kg/m3]
Details | 288.15 K | 298.15 K | 313.15 K | 328.15 K
x1 = 0.1001 | 850.611 | 842.336 | 829.747 | 816.824
x1 = 0.2002 | 883.667 | 874.886 | 861.524 | 847.882
x1 = 0.3001 | 913.38 | 904.169 | 890.202 | 875.956
x1 = 0.35 | 927.207 | 917.818 | 903.569 | 889.092
x1 = 0.4 | 940.225 | 930.667 | 916.189 | 901.465
x1 = 0.45 | 952.775 | 943.06 | 928.349 | 913.434
x1 = 0.5 | 964.641 | 954.786 | 939.89 | 924.793
x1 = 0.5501 | 976.114 | 966.141 | 951.051 | 935.788
x1 = 0.5999 | 986.952 | 976.853 | 961.602 | 946.182
x1 = 0.7 | 1007.44 | 997.139 | 981.612 | 965.954
x1 = 0.7998 | 1026.31 | 1015.86 | 1000.1 | 984.244
x1 = 0.9001 | 1043.95 | 1033.35 | 1017.41 | 1001.38
x1 = 1 | 1060.33 | 1049.6 | 1033.5 | 1017.34

CCOC(=O)CC(=O)OCC [diethyl 1,3-propanedioate] + CCCO
mass density [kg/m3]
Details | 288.15 K | 298.15 K | 313.15 K | 328.15 K
x1 = 0.1001 | 854.156 | 845.431 | 832.128 | 818.439
x1 = 0.2 | 891.858 | 882.638 | 868.577 | 854.173
x1 = 0.2999 | 923.874 | 914.254 | 899.629 | 884.69
x1 = 0.3501 | 938.229 | 928.438 | 913.567 | 898.431
x1 = 0.4001 | 951.433 | 941.51 | 926.45 | 911.123
x1 = 0.4499 | 963.765 | 953.71 | 938.475 | 922.986
x1 = 0.4999 | 975.313 | 965.148 | 949.737 | 934.134
x1 = 0.5446 | 985.016 | 974.758 | 959.257 | 943.524
x1 = 0.5997 | 996.235 | 985.888 | 970.245 | 954.437
x1 = 0.7003 | 1014.96 | 1004.46 | 988.638 | 972.67
x1 = 0.7998 | 1031.53 | 1020.94 | 1004.99 | 988.923
x1 = 0.8997 | 1046.55 | 1035.87 | 1019.84 | 1003.72
x1 = 1 | 1060.33 | 1049.6 | 1033.5 | 1017.34

CCOC(=O)CC(=O)OCC [diethyl 1,3-propanedioate] + CCO
mass density [kg/m3]
Details | 288.15 K | 298.15 K | 313.15 K | 328.15 K
x1 = 0.05 | 826.264 | 817.293 | 803.619 | 789.558
x1 = 0.0999 | 853.923 | 844.646 | 830.505 | 815.983
x1 = 0.1001 | 854.013 | 844.731 | 830.589 | 816.063
x1 = 0.15 | 878.005 | 868.468 | 853.941 | 839.005
x1 = 0.2001 | 899.1 | 889.366 | 874.536 | 859.351
x1 = 0.3 | 934.365 | 924.309 | 909.007 | 893.394
x1 = 0.4 | 962.806 | 952.511 | 936.881 | 920.983
x1 = 0.4498 | 974.929 | 964.533 | 948.801 | 932.802
x1 = 0.4999 | 986.037 | 975.577 | 959.71 | 943.637
x1 = 0.5501 | 996.293 | 985.767 | 969.837 | 953.695
x1 = 0.6001 | 1005.6 | 995.034 | 979.034 | 962.847
x1 = 0.6453 | 1013.44 | 1002.82 | 986.788 | 970.577
x1 = 0.6997 | 1022.16 | 1011.52 | 995.442 | 979.211
x1 = 0.7497 | 1029.61 | 1018.93 | 1002.83 | 986.588
x1 = 0.8496 | 1043.02 | 1032.31 | 1016.2 | 999.969
x1 = 0.8995 | 1049.08 | 1038.36 | 1022.25 | 1006.06
x1 = 1 | 1060.33 | 1049.6 | 1033.5 | 1017.34

CCOC(=O)CC(=O)OCC [diethyl 1,3-propanedioate] + CO
mass density [kg/m3]
Details | 288.15 K | 298.15 K | 313.15 K | 328.15 K
x1 = 0.05 | 841.286 | 831.536 | 816.754 | 801.691
x1 = 0.1 | 876.23 | 866.252 | 851.13 | 835.697
x1 = 0.1501 | 904.185 | 894.037 | 878.631 | 862.956
x1 = 0.2001 | 926.962 | 916.671 | 901.091 | 885.223
x1 = 0.2501 | 945.901 | 935.504 | 919.763 | 903.75
x1 = 0.3001 | 961.96 | 951.502 | 935.636 | 919.517
x1 = 0.35 | 975.573 | 965.04 | 949.084 | 932.879
x1 = 0.4001 | 987.417 | 976.822 | 960.784 | 944.523
x1 = 0.4503 | 997.752 | 987.12 | 971.04 | 954.725
x1 = 0.5004 | 1006.9 | 996.235 | 980.1 | 963.763
x1 = 0.5497 | 1014.88 | 1004.18 | 988.016 | 971.649
x1 = 0.6 | 1022.04 | 1011.32 | 995.132 | 978.761
x1 = 0.6495 | 1028.48 | 1017.74 | 1001.52 | 985.159
x1 = 0.6997 | 1034.33 | 1023.59 | 1007.37 | 991.006
x1 = 0.7978 | 1044.36 | 1033.61 | 1017.38 | 1001.07
x1 = 0.9009 | 1053.15 | 1042.39 | 1026.22 | 1009.98
x1 = 1 | 1060.33 | 1049.6 | 1033.5 | 1017.34

CCO [ethanol] + CCOC(=O)CC(=O)OCC
x2 = 0
Details | mass density [kg/m3]
288.15 K | 794.044
298.15 K | 785.489
313.15 K | 772.42
328.15 K | 758.958

CO [methanol] + CCOC(=O)CC(=O)OCC
x2 = 0
Details | mass density [kg/m3]
288.15 K | 796.406
298.15 K | 786.987
313.15 K | 772.74
328.15 K | 758.201

CCCCCO [pentan-1-ol] + CCOC(=O)CC(=O)OCC
x2 = 0
Details | mass density [kg/m3]
288.15 K | 818.801
298.15 K | 811.465
313.15 K | 800.264
328.15 K | 788.737

CCCO [propan-1-ol] + CCOC(=O)CC(=O)OCC
x2 = 0
Details | mass density [kg/m3]
288.15 K | 809.009
298.15 K | 800.973
313.15 K | 788.687
328.15 K | 775.974
